organism: Homo sapiens; assay: Selectivity ratio of IC50 for human recombinant ERalpha to IC50 for human recombinant ERbeta

Row | Compound | Ratio IC50
1 | COc1ccc2c(c1CC=C(C)C)O[C@H]1c3ccc(O)cc3OC[C@@]21O | 2.2
2 | COc1cc(O)c2c(=O)c(-c3cc4c(cc3O)OC(C)(C)C(O)C4)coc2c1 (stereo not drawn) | 16
3 | COc1cc(O)c2c(=O)c(-c3ccc(O)c(CC(O)=C(C)C)c3)coc2c1 | 2.3
4 | CCCc1c(-c2ccc(O)cc2)nn(-c2ccc(O)cc2)c1-c1ccc(O)cc1 | 36
5 | COc1cc(O)c2c(=O)c(-c3cc(CC=C(C)C)c(O)cc3O)coc2c1 | 0.7

Other lines, results leading:

Row | Ratio IC50 | Compound
6 | 0.6 | CC(C)=CCc1cc(-c2coc3cc(O)cc(O)c3c2=O)ccc1O
7 | 0.6 | CC(C)=CCc1c(O)cc2occ(-c3ccc(O)cc3)c(=O)c2c1O
8 | 0.7 | CC1(C)C=Cc2c(cc3occ(-c4ccc(O)cc4)c(=O)c3c2O)O1

From ChEMBL document CHEMBL1154244, “Isoflavonoids from Erythrina poeppigiana: evaluation of their binding affinity for the estrogen receptor” (J Nat Prod, 2009)
